Test results reported in patent US20120283293A1, “Methods of neuroprotection involving Prostaglandin E2 EP4 (PGE2 EP4) receptor activation” (The Board of Trustees of the Leland Stanford Junior …, priority 2011, published 2012).

Legend:
EP4 receptor = conditions: Suzawa et al., 2000; Shibuya et al., 2002; cited from earlier work
primary human monocytes = assay: TNF-α and IL-6 ELISA in LPS-stimulated primary human monocytes; type: cell-based; conditions: LPS 100 ng/ml, AE1-329 100 nM, 6 hours
Method: Human monocyte derived macrophages were purchased from AllCells (Catalog #PB-MDM-001F: Frozen normal peripheral blood monocyte derived macrophages) and plated at a density of 23,000 cells per well in a 96 well plate. Two dilutions (1:5 and 1:10) were tested using anti-human IL6 and anti-human TNFα ELISA to measure concentrations of these two cytokines in pg/ml after 6 hours of stimulation with either vehicle alone, AE1-329 (100 nM), LPS, and LPS plus AE1-329 (100 nM).
Primary human monocytes were stimulated with either vehicle (PBS) alone, AE1-329 (100 nM), LPS (100 ng/ml), and LPS (100 ng/ml) plus AE1-329 (100 nM). Two dilutions (1:5 and 1:10) were tested using anti-human IL6 and anti-human TNF-α ELISA to measure concentrations of these two cytokines in pg/ml after 6 hours of stimulation.

[1] = tested on: IKK phosphorylation in BV-2 cells; assay: phospho-IKK quantitative Western in LPS-stimulated BV-2 cells; type: cell-based, murine; conditions: LPS 100 ng/ml, AE1-329 100 nM
Method: Nuclear and cytoplasmic fractions of BV-2 cells were prepared at several time points after treatment (0-120 minutes) using the nuclear extract kit from Active Motif (Carlsbad, Calif.). Briefly, cells were washed, collected in ice-cold PBS in the presence of phosphatase inhibitors, and centrifuged at 300×g for 5 min at 4° C. Cell pellets were resuspended in hypotonic buffer, treated with detergent, and centrifuged at 14,000×g for 30 sec at 4° C. After collection of the cytoplasmic fraction, nuclei were solubilized for 30 min in lysis buffer containing protease inhibitors. Lysates were centrifuged at 14,000×g for 30 min at 4° C. and supernatants were collected for NF-κB studies. To prepare whole cell lysates for phospho-Akt and phospho-IKK studies, cells were washed in ice-cold PBS and lysed in 20 mM Tris-HCl, pH 7.5, 150 mM NaCl, 1 mM Na2EDTA, 1 mM EGTA, 1% Triton, 2.5 mM sodium pyrophosphate, 1 mM β-glycerophosphate, 1 mM orthovanadate, 1 μg/ml leupeptin and 1 mM PMSF. […] All protein concentrations were determined using the Bradford protein assay.
Western blot analysis. […] Immunoreactivity was detected using either sheep anti-rabbit or sheep anti-mouse HRP-conjugated secondary antibody (Amersham Biosciences, Arlington Heights, Ill.), followed by enhanced chemiluminescence (Pierce). Autoradiographic signals were quantified using NIH Image. […]

Compound: COCc1ccccc1CC[C@H](O)/C=C/[C@H]1[C@H](O)CC(=O)[C@@H]1SCCCSCC(=O)O [AE1-329]
- selectivity for the EP4 receptor (EP4 receptor): selectivity for the EP4 receptor has been previously established
- LPS-induced increase in IL-6 levels (ELISA) (primary human monocytes): significantly reduced
- LPS-induced increase in TNF-α levels (ELISA) (primary human monocytes): entirely reversed
- LPS-induced phosphorylation of IKK [1]: attenuated
